We go through ten molecules from PubChem BioAssay (NCI).

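96-well plates; 48 h exposure; 5 concentrations. Endpoints by linear interpolation between flanking doses. Not reached: highest tested concentration assigned. GI50 marks 50% less growth. TGI marks complete inhibition of growth.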 Bounds are passed on as bounds.

Assay in all cases: growth of human tumour cells (NCI), 48 h
Test [1] deals with CAKI-1 renal.
Test [2] relates to DU-145 prostate.
The subject of test [3] is HCT-116 colon.
Test [4] relates to K-562 leukemia.
Test [5] concerns KM12 colon.
For test [6], the system named is LOX IMVI melanoma.
For test [7], the system named is M14 melanoma.
Test [8] deals with MDA-MB-231 breast.
Test [9] has as its system NCI-H226 lung.
Test [10] deals with NCI/ADR-RES ovarian.
The subject of test [11] is OVCAR-4 ovarian.
For test [12], the system named is OVCAR-5 ovarian.
For test [13], the system named is RPMI-8226 leukemia.
In test [14] the test system is SK-MEL-5 melanoma.
The test system of test [15] is SK-OV-3 ovarian.
Test [16] deals with SK-MEL-28 melanoma.
For test [17], the system named is SNB-75 CNS.

In the case of `Cc1ccc(O)c(C2=NNC(c3cccc(Cl)c3)C2)c1` (stereo not drawn), the TGI in test [1], in test [2], in test [3], in test [4], in test [5] and in test [6] was > 100 µM in each case. The TGI in [7] was > 100 µM; in test [8] it was > 100 µM; in [9] it was > 100 µM; in test [10] it was > 100 µM; in test [11], 94 µM; in test [12], > 100 µM. For the same molecule, the figures for the TGI in test [13], in [14] and in test [15] were 88.3 µM, > 100 µM and > 100 µM, respectively.

Consider `Cc1cc(S(=O)(=O)NC2=NCC(C)(C)CN2)c(S)cc1Cl`, for which the TGI in test [1] was > 100 µM; in test [2], > 100 µM; in test [3] it was 75.8 µM; in [4] it was 80.5 µM; in [5], > 100 µM; in [6], 31.2 µM. Moreover, the TGI in test [7] is > 100 µM; in test [8], > 100 µM; in test [9], 94.8 µM; in test [10], > 100 µM; in [11], 64.5 µM; in test [12], 51.1 µM. Further, the TGI in [16] is > 100 µM; in test [14], 33.7 µM; in test [15] it was > 100 µM; in test [17], > 100 µM.

As to `COC(=O)CNC(=O)CSc1nnc(COc2ccc(Cl)cc2)n1-c1ccccc1`, the TGI in test [1] was 32.2 µM; in [2], 33.6 µM; in test [3], > 100 µM; in test [4], > 100 µM; in test [5], > 100 µM; in test [6], > 100 µM. The TGI in test [7] was > 100 µM; in test [8] it was 49.1 µM; in test [9], > 100 µM; in [10], > 100 µM; in test [11], > 100 µM; in test [12], > 100 µM. Moreover, the TGI in test [16] was 81.3 µM; in test [15] it was > 100 µM; in test [17] it was 35.5 µM.

For `CN1N=C(c2ccccc2)c2cc(Cl)ccc2N=C1N/N=C/c1ccc(N(C)C)cc1`, the TGI in test [1], in test [2], in test [3], in test [4], in test [5] and in test [7] was > 100 µM in each case. In addition, the TGI in test [8], in test [9], in [10], in test [11], in [13] and in test [16] was > 100 µM throughout. The TGI in test [14], in test [15] and in test [17] was > 100 µM in each case.

As for `Nn1c(CCCCCCCCc2n[nH]c(=S)n2N)n[nH]c1=S`, the TGI in test [1], in [2], in [3], in [4], in test [5] and in [7] was > 100 µM each time. Moreover, the TGI in [8], in [9], in test [10], in test [11], in [12] and in [13] was > 100 µM in each case. In addition, the TGI in test [16], in [15] and in [17] was > 100 µM in each case.

Consider `CCN1C/C(=C\c2ccc(Cl)cc2)c2[nH]c(=O)c(C#N)c(-c3ccc(Cl)cc3)c2C1`, for which the TGI in test [2], in test [3], in test [4], in test [5], in [6] and in test [7] was > 100 µM throughout. Besides, the TGI in [8], in [9], in [10], in test [11], in [12] and in [13] was > 100 µM each time. Also, the TGI in test [16], in test [14] and in [15] was > 100 µM throughout.

`COc1cc([C@@H]2c3cc4c(cc3[C@@H](NC(=O)NO)[C@H]3COC(=O)[C@H]23)OCO4)cc(OC)c1O`: the TGI in [1], in [2], in [3], in [4], in [6] and in test [7] was > 100 µM in each case. Besides, the TGI was > 100 µM in [8], 93.1 µM in test [10], > 100 µM in test [11] and > 100 µM in test [13]. Besides, the GI50 in test [2] was 7.27 µM; in [7] it was 37 µM.

For the molecule `O=C(O)CCC(NC(=O)c1ccc(Oc2nc3ccccc3nc2-c2ccccc2)cc1)C(=O)O` (stereo not drawn), the TGI in test [1], in test [2], in test [3], in [4], in [5] and in test [6] was > 100 µM throughout. The TGI in test [7], in test [8], in [9], in [10], in test [11] and in [12] was > 100 µM in each case. In addition, the TGI in [16], in test [15] and in test [17] was > 100 µM each time.

`O=c1c2ccccc2nc(N/N=C/c2ccc(Cl)cc2)n1-c1ccccc1`: the TGI in [1], in test [2], in test [3], in test [4], in [6] and in [7] was > 100 µM each time. Further, the TGI in [8], in test [9], in test [10], in [11], in [12] and in [16] was > 100 µM throughout. Moreover, the TGI in test [14] and in test [15] was > 100 µM each time.

Consider `C[C@H]1S[C@H](c2c(F)cccc2F)n2c1nc1ccccc12`, for which the TGI in test [1], in test [2], in test [3], in [4], in [5] and in test [7] was > 100 µM in each case. The TGI in test [8], in [9], in test [10], in test [11], in test [12] and in test [13] was > 100 µM in each case. For the same molecule, the TGI in test [16] was > 100 µM; in test [14] it was 45.3 µM; in test [15], > 100 µM; in test [17], > 100 µM.
